Experimental data as given in the CombiSolv-Exp solvation set (Vermeire and Green 2021).

Assay: solvent given as SMILES

c1ccccc1
Conditions | solvation free energy, 298 K [kcal/mol]
in BrC(Br)C(Br)Br | -4.27
in Brc1cccc2ccccc12 | -4.1
in C1=CCCCC1 | -4.37
in C1=Cc2ccccc2C1 | -4.39
in C1CCC(C2CCCCC2)CC1 | -3.96
in C1CCCCC1 | -4.21
in C1CCOC1 | -4.75
in C1COCCO1 | -4.53
in C=CCCCCCCCCCCCCCC | -3.83
in CC1CCCC1 | -4.19
in CC1CCS(=O)(=O)C1 | -4.11
in CC1COC(=O)O1 | -3.88
in CC#N | -4.25
in CC(=O)CC(C)C | -4.44
in CC(=O)N(C)C | -4.29
in CC(=O)O | -3.94
in CC(=O)OCc1ccccc1 | -4.26
in CC(=O)c1ccccc1 | -4.28
in CC(C)(C)O | -3.71
in CC(C)=O | -4.42
in CC(C)CC(C)(C)C | -3.95
in CC(C)CCCC(C)CCCC(C)CCCCC(C)CCCC(C)CCCC(C)C | -3.69
in CC(C)CO | -3.71
in CC(C)O | -3.71
in CC(O)CO | -3.21
in CCC#N | -4.47
in CCC(C)=O | -4.49
in CCC(C)O | -3.78
in CCCC#N | -4.29
in CCCCC#N | -4.42
in CCCCC(CC)COC(=O)CCCCC(=O)OCC(CC)CCCC | -4.09
in CCCCC(CC)COC(=O)c1ccccc1C(=O)OCC(CC)CCCC | -3.9
in CCCCCC | -4.03
in CCCCCC#N | -4.36
in CCCCCCC | -4
in CCCCCCCC | -3.96
in CCCCCCCCCC | -3.98
in CCCCCCCCCCCC | -3.85
in CCCCCCCCCCCCCCCC | -3.82
in CCCCCCCCCCCCO | -3.74
in CCCCCCCCCCO | -3.59
in CCCCCCCCCOC(=O)c1ccccc1C(=O)OCCCCCCCCC | -3.98
in CCCCCCCCO | -3.81
in CCCCCCCO | -3.83
in CCCCCO | -3.86
in CCCCCl | -4.46
in CCCCN(C=O)CCCC | -4.26
in CCCCOC(=O)c1ccccc1C(=O)OCCCC | -4.23
in CCCCOC(C)=O | -3.87
in CCCCOCCCC | -4.11
in CCCO | -3.84
in CCN1CCCC1=O | -4.5
in CCN(CC)C(C)=O | -4.39
in CCNC(C)=O | -4
in CCNC=O | -3.94
in CCO | -3.88
in CCOC(=O)c1ccccc1C(=O)OCC | -4.06
in CCOC(C)=O | -4.42
in CN1CCCC1=O | -4.43
in CN1CCCCC1=O | -4.47
in CN(C)P(=O)(N(C)C)N(C)C | -4.31
in CNC(C)=O | -3.87
in CNC=O | -3.83
in CO | -3.85
in COC(=O)OC | -4.41
in COC(C)(C)C | -4.31
in COC(C)=O | -4.38
in COCCO | -4.02
in CS(C)=O | -3.96
in Cc1ccc(C)cc1 | -4.37
in Cc1cccc2ccccc12 | -4.17
in Cc1cccc(C)c1 | -4.36
in Cc1cccc(O)c1 | -4
in Cc1ccccc1 | -4.47
in ClC(Cl)(Cl)Cl | -4.42
in ClC(Cl)C(Cl)Cl | -4.59
in ClC(Cl)Cl | -4.79
in ClCBr | -4.74
in ClCCCl | -4.59
in ClCCl | -4.8
in Clc1cccc2ccccc12 | -4.07
in Clc1ccccc1 | -4.44
in N#CCCCC#N | -3.59
in N#CCCCCC#N | -3.92
in N#CCCO | -3.5
in N#CCc1ccccc1 | -4.13
in N#Cc1ccccc1 | -4.35
in NC=O | -2.69
in NCCN | -3.63
in NCCO | -3.09
in NCc1ccccc1 | -4.23
in Nc1ccccc1 | -4.07
in O | -0.87
in O=C1CCCCC1 | -4.55
in O=C1CCCO1 | -4.16
in O=C(O)C(Cl)Cl | -4.09
in O=CN1CCOCC1 | -4.02
in O=Cc1ccco1 | -4.04
in OC1CCCCC1 | -3.85
in OCC1CCCO1 | -4.04
in OCCCCCO | -3.33
in OCCCCO | -3.36
in OCCCO | -3.12
in OCCCl | -3.65
in OCCO | -2.76
in OCCOCCO | -3.38
in OCCOCCOCCO | -3.43
in OCCOCCOCCOCCO | -3.56
in OCCS | -3.62
in OCCc1ccccc1 | -3.96
in OCc1ccccc1 | -3.94
in OCc1ccco1 | -3.89
in S=C=S | -4.51
in [2H]O[2H] | -1.01
in c1ccc2c(c1)CCCC2 | -4.33
in c1ccc2ncccc2c1 | -4.31
in c1ccc(C2CCCCC2)cc1 | -4.19
in c1ccncc1 | -4.51
in c1ccsc1 | -4.61

CSc1nc(N=[N+]=[N-])nc(NC(C)C)n1
Conditions | solvation free energy, 298 K [kcal/mol]
in O | -8.19

O=Nc1ccc2ccccc2c1O
Conditions | solvation free energy, 298 K [kcal/mol]
in O | -8.79

CCc1ccccc1O
Conditions | solvation free energy, 298 K [kcal/mol]
in CCCCCC | -6.6
in O | -5.85

O=[N+]([O-])c1ccccc1
Conditions | solvation free energy, 298 K [kcal/mol]
in CCCCCC | -6.09
in CCCCCCC | -6.14
in CCCCCCCCCCCCCCCC | -6.12
in O | -4.23

CCc1ccc(CC)cc1
Conditions | solvation free energy, 298 K [kcal/mol]
in CC(C)(C)O | -6.3

CCN(CC)N=O
Conditions | solvation free energy, 298 K [kcal/mol]
in CC(C)CC(C)(C)C | -5.28
in O | -5.46

OCCOCCOCCO
Conditions | solvation free energy, 298 K [kcal/mol]
in CCCCCCC | -7.04

CN(C)Cc1ccccc1
Conditions | solvation free energy, 298 K [kcal/mol]
in O | -5.05

ClC(Cl)=C(c1ccc(Cl)cc1)c1ccc(Cl)cc1
Conditions | solvation free energy, 298 K [kcal/mol]
in CCCCCCCCC=CCCCCCCCC(=O)OCC(COC(=O)CCCCCCCC=CCCCCCCCC)OC(=O)CCCCCCCC=CCCCCCCCC | -12.8
in CCCCCCCCO | -13.2
in O | -3.78

Cc1ccc(C)c(C)c1
Conditions | solvation free energy, 298 K [kcal/mol]
in O | -0.83

Nc1cccc2ccccc12
Conditions | solvation free energy, 298 K [kcal/mol]
in CCCCCC | -8.87
in CCCCCCCC | -8.82
in O | -7.4

CC(C)COC(=O)C(C)C
Conditions | solvation free energy, 298 K [kcal/mol]
in O | -1.69

CN
Conditions | solvation free energy, 298 K [kcal/mol]
in CCCCCC | -1.64
in CCCCO | -2.89
in CN(C)C=O | -2.66
in ClC(Cl)(Cl)Cl | -2.33
in ClC(Cl)Cl | -3.16
in O | -4.56

CCC(C)CCCC(C)CCCC(C)CCCC(C)C (stereo unspecified)
Conditions | solvation free energy, 298 K [kcal/mol]
in O | 4.83

[2H]O[2H]
Conditions | solvation free energy, 298 K [kcal/mol]
in C1CCCCC1 | -0.54
in CCO | -5.24
in ClC(Cl)(Cl)Cl | -1.14
in S=C=S | -0.75

CCC[N+](=O)[O-]
Conditions | solvation free energy, 298 K [kcal/mol]
in CC(C)CC(C)(C)C | -3.94
in CCCCCC | -4.05
in CCCCCCC | -3.97
in CCCCCCCC | -3.95
in CCCCCCCCCCCCCCCC | -3.79
in CCCCCCCCO | -4.44
in O | -3.38
in [2H]O[2H] | -3.44

COCC(OC)(OC)OC
Conditions | solvation free energy, 298 K [kcal/mol]
in O | -5.73

O=C(O)c1cccc(Cl)c1
Conditions | solvation free energy, 298 K [kcal/mol]
in C1CCOC1 | -11.2
in C1COCCO1 | -10.9
in CC(C)CCO | -10.5
in CC(C)CO | -10.5
in CC(C)O | -10.7
in CC(C)OC(C)C | -10.1
in CCC(C)O | -10.6
in CCCCCCCCCCO | -10.3
in CCCCCCCCO | -10.4
in CCCCCCCO | -10.5
in CCCCCCO | -10.6
in CCCCCO | -10.6
in CCCCCOC(C)=O | -10.1
in CCCCO | -10.6
in CCCCOC(C)=O | -10.2
in CCCO | -10.7
in CCO | -10.7
in CCOC(C)=O | -10.4
in CCOCC | -10.5
in O | -7.03

COc1ccc(C(=O)N(O)c2cccc(Cl)c2)cc1
Conditions | solvation free energy, 298 K [kcal/mol]
in O | -12.8
